In patent US20230104124A1, “N-PALMITOYLETHANOLAMIDE AND DOCOSAHEXAENOIC ACID FOR USE IN THE TREATMENT OF AUTISM SPECTRUM DISORDER AND OTHER DEPRESSIVE SYNDROMES” (EPITECH GROUP S.P.A., priority 2021, published 2023):

Experiments:
[1] = intravenous infusion; during the 60 hours of administration; cited from earlier work
[2] = tested on: BTBR mice; experiment: Marble Burying test in BTBR mice; format: in vivo; details: per os daily for 10 days, PEA-um 1 mg/kg, DHA 5 mg/kg (30 mg/kg DHA 17% titer), 8 animals per group
Source text: (§1) Healthy male C57BL/6J (C57) mice and 90-day BTBR T+tf/J (BTBR) mice (The Jackson Laboratory, Bar Harbor, ME, USA) fed ad libitum and housed in controlled sleep/wake cycle cages were used in the in vivo trial. Before the start of the experimentation, the animals were subjected to an acclimatization period of 1 week considering all the experimental procedures and protocols, compliant with the principles of care and welfare of laboratory animals approved by the Italian Ministry of Health (Italian Legislative Decree 2014/26) and European directives (EU Directive 2010/63). […]
(§2) All the values reported in the results are expressed as mean ± standard error of the mean (SEM) of N observations (N = number of animals). The statistical differences in the ALLO dosage and behavioral score were analyzed with one-way ANOVA, followed by Sidak’s multiple comparisons. […]

[3] = tested on: BTBR mice; experiment: Self Grooming test in BTBR mice; format: in vivo; details: monitored for 20 minutes, per os daily for 10 days, PEA-um 1 mg/kg, DHA 5 mg/kg (30 mg/kg DHA 17% titer)
Source text: as §1, §2
In the Self Grooming test, the mice were placed in an empty plexiglass cage (30x40 cm) and allowed to freely explore the arena. After 10 minutes of acclimatization, self grooming activity was monitored for 20 minutes. […]

[4] = tested on: BTBR mice; experiment: Sociability, three-chamber test in BTBR mice; format: in vivo; details: per os daily for 10 days, PEA-um 1 mg/kg, DHA 5 mg/kg (30 mg/kg DHA 17% titer)
Source text: as §1, §2
(§3) In the last 10-minute phase, the preference of the mouse in staying in the empty chamber or in the presence of the mouse was evaluated (Crawley JN, Designing mouse behavioral tasks relevant to autistic-like behaviors, Ment. Retard Dev. Disabil. Res. Rev. 2004, 10: 248-258). The time spent in each chamber was detected by a camera coupled to video tracking software.

[5] = tested on: C57 mice; experiment: Sociability, three-chamber test in healthy C57 mice; format: in vivo; details: per os daily for 10 days, PEA-um 1 mg/kg, DHA 5 mg/kg (30 mg/kg DHA 17% titer)
Source text: as §1, §2, §3

[6] = tested on: plasma ALLO levels; experiment: Plasma ALLO neurosteroid levels in BTBR mice; format: in vivo; details: plasma 10 days after starting daily per os treatment, PEA-um 1 mg/kg, DHA 5 mg/kg (30 mg/kg DHA 17% titer)
Source text: as §1, §2

[7] = tested on: mice with a simil-autistic phenotype; details: cited from earlier work
[8] = tested on: autistic children; details: PEA-um 600 mg/day, 3-month treatment; cited from earlier work

| Compound | Risks during administration [1] | Number of marbles buried in 15 min (obsessive behavior) [2] | Time spent self-grooming (repetitive behavior) [3] | Sociability (time spent in empty chamber or chamber occupied by a mouse) [4] | Sociability (time spent in empty chamber or chamber occupied by a mouse) [5] | Plasma ALLO levels [6] | Altered behavioral status [7] | Expression of pro-inflammatory hippocampal and serum cytokines IL-6, IL-1b and TNF-a [7] | Clinical effect on autistic symptoms [8] |
| --- | --- | --- | --- | --- | --- | --- | --- | --- | --- |
| CC(=O)[C@H]1CC[C@H]2[C@@H]3CC[C@H]4C[C@H](O)CC[C@]4(C)[C@H]3CC[C@]12C [Zulresso, allopregnanolone] | risk of excessive sedation, sudden loss of consciousness or dizziness | – | – | – | – | – | – | – | – |
| CCCCCCCCCCCCCCCC(=O)NCCO [PEA-um, N-palmitoylethanolamide] | – | obsessively bury the marbles | did not demonstrate any reduction in the time (s) spent self-grooming | did not demonstrate social improvements | enhanced sociability to another mouse | significant reduction in plasma ALLO levels | modulating the altered behavioral status | reducing the expression of the pro-inflammatory hippocampal and serum cytokines IL-6, IL-1b and TNF-a | improves aggressiveness, cognitive and behavioral skills, and communication |
